In publication PMC9777073, “A Fenchone Derivative Effectively Abrogates Joint Damage Following Post-Traumatic Osteoarthritis in Lewis Rats” (Cells, 2022):

Target: T1, cannabinoid receptor 1 (CB1) (Homo sapiens, UniProt P21554)
T1 construct: gene CNR1
Assay: cell-based
Set-up: species or system CHO-K1
Settings: read-out: Antagonist IC50 RC50
Excerpt: For agonist analysis, we monitored “evaluation of potency” (EC50) and % efficacy (Max response), which were reflected by increased intracellular cAMP levels detected in cAMP Hunter™ Gs cell lines (CHO-K1 lines) overexpressing human CNR1 (i.e., gene encoding CB1) or CNR2 (i.e., gene encoding CB2). Alternatively, antagonist activity (i.e., inhibitory concentration or IC50) utilized a cAMP Hunter™ Gi cell lines (CHO-K1 lines), detecting an intracellular reduction in cAMP levels in cells overexpressing CNR1 and CNR2. These cell lines are designed to be used in conjunction with the HitHunter® cAMP Assay Detection Kit. Specifically, for agonist assay, cells were subjected to positive controls, known to activate the increase in cAMP for both receptors (agonist control 20 µM Forskolin for CB1 and 25 µM Forskolin for CB2). […] Prior to testing the cell, plating media were exchanged with 10 uL of Assay buffer (HBSS + 10 mM HEPES). Agonist results are expressed as percent efficacy relative to the maximum response of the control ligand (%Effc or EC50), while antagonist results are expressed as percent inhibition of the control ligand (IC50) normalized to the unantagonized vehicle.

T1 sequence (P21554 whole entry): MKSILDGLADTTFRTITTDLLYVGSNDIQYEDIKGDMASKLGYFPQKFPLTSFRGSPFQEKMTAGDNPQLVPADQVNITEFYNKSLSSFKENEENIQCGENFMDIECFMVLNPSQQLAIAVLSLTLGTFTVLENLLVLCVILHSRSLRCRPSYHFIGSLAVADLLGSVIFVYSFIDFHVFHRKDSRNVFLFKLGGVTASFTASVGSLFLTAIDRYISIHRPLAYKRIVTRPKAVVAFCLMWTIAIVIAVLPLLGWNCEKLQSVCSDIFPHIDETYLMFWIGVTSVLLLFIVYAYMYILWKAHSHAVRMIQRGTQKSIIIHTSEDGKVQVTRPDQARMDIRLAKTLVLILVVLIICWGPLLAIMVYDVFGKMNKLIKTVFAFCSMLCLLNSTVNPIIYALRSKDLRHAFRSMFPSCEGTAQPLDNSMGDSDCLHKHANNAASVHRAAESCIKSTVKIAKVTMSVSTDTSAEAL

Q: With `Cc1c(C(=O)NN2CCOCC2)nn(-c2ccc(Cl)cc2Cl)c1-c1ccc(I)cc1` [AM281] as the molecule, how does the IC50 read?
A: 22.4 nM
